From patent US20250057790A1, “AN INJECTABLE PHARMACEUTICAL COMPOSITION FOR THE TREATMENT OF RESPIRATORY DISEASES IN ANIMALS” (priority 2021, published 2025) come the findings set out here.

≈ marks a conversion by molar mass, not a printed value.

One data set has as its system B. bronchiseptica. Kind of data set: MIC determination, broth-microdilution (CLSI VET01-A4), field isolates. Type of data set: cell-based, Bordetella bronchiseptica. The method, then: (§1) This study determined the in vitro activity Compound (A), the enantiomer of the compound of Formula (I), against different isolates of Actinobacillus (A.) pleuropneumoniae, Bordetella (B.) bronchiseptica, Mannheimia (M.) haemolytica, Pasteurella (P.) multocida, Histophilus (H.) somni and Glaesserella parasuis collected in different European countries.
(§2) The in vitro activity was determined by measuring the minimum inhibitory concentrations (MIC) according to CLSI document VET01-A4 [1] and by calculating MIC50 and MIC90.
(§3) A total of 193 field isolates were tested: 31 of A. pleuropneumoniae, 20 of B. bronchiseptica, 20 of H. somni, 20 H. parasuis, 55 of M. haemolytica and 47 of P. multocida. All bacteria were isolated from the respiratory tract of cattle and swine suffering from respiratory disease. All isolates were epidemiologically unrelated as specified by the different suppliers. E. coli ATCC 25922 (ID 6105) and M. haemolytica ATCC 33396 (ID 6374) were used as reference strains for testing isolates of B. bronchiseptica, M. haemolytica and P. multocida. A. pleuropneumoniae ATCC 27090 (ID 6314) and H. somni ATCC 700025 (ID 6315) were used as reference strains for the testing isolates of A. pleuropneumoniae, H. somni and Glaesserella parasuis. Additionally, H. parasuis (G. parasuis) ATCC 19417 was included as type strain for growth control.
(§4) • Mueller-Hinton agar (Becton Dickinson, Lot 9224866) • Cation-adjusted Mueller-Hinton broth, (CAVHB, Becton Dickinson, Lot 8190586) • Sheep blood, defibrinated (Thermo Scientific, Lot 37091500) • Chocolate agar, GC II with IsoVitalex™ (Becton Dickinson, Lot 0147695) • GC-agar base (Becton Dickinson, Lot 6082608) • Hemoglobin solution (Becton Dickinson, Lot 7142854) • Vitox (Oxoid, Lot 2344976) • Veterinary fastidious Medium (VFM), prepared according to CLSI document VET01-A4 [1], containing: • CAMHB (Becton Dickinson, Lot 8190586) • Yeast extract (Sigma, Lot BCBS5470V) • Lysed horse blood (Thermo Scientific, Lot 35875000) • Supplement C™ (Becton Dickinson, Lot 8030960) • Deionized water
(§5) The MICs for all isolates except for H. somni and Glaesserella parasuis isolates, were determined by using the broth-microdilution method according to CLSI document VET01-A4 [1]. For isolates of H. somni and Glaesserella parasuis the agar-dilution method with chocolate agar GC II, was used. The test concentration range for all compounds was 16 μg/mL to 0.016 μg/mL.
The MIC results were interpreted according to the CLSI document VET01-S3 [2]. […] All wells containing test item were compared with the growth-control wells. The lowest concentration of compound at which no visible growth (i.e. no turbidity) was detected by the unaided eye was recorded as the MIC. […]

Data set [1] has as its system P. multocida (bovine origin). Described as above. Type of data set: cell-based, Pasteurella multocida. The method, then: as §1, §2, §3, §4, §5
(§6) The MIC results were interpreted according to the CLSI document VET01-S3 [2]. […] All wells containing test item were compared with the growth-control wells. The lowest concentration of compound at which no visible growth (i.e. no turbidity) was detected by the unaided eye was recorded as the MIC. If a “trailing endpoint” occurs, the MIC is defined as the first concentration at which a markedly reduction (about 90%) of the inoculum is observed.
(§7) For isolates tested by the agar-dilution method, results were interpreted according to the CLSI document VET01-S3 [2]. […] The MIC50 and MIC90 represent the concentrations at which a minimum of 50% or 90% of the isolates tested are inhibited.

In data set [2] the test system is P. multocida (porcine origin). The description is as above. Type of data set: cell-based, Pasteurella multocida. On the procedure: as §1, §2, §3, §4, §5, §6, §7
The nature of data set [3]: Lung tissue study in cattle. The data set is classed as in vivo. The settings on record: after slaughter. On the procedure: The same animals and compositions of Compound A that were used in Example 5 were also used for the Lung tissue study. The lung was freed from the trachea and appending tissues. One half of the lung was homogenized using a food processor (Robot Coupe). Two aliquots of approximately 1 g were placed into 15 mL Falcon tubes. From the liver, kidney and a skeletal muscle (long back muscle) scissor snips from at least two locations were collected to a total mass of ca. 1 g each and placed into 15 mL Falcon tubes. Tissue samples were diluted with blank EDTA cattle plasma 1+3 (w/v) and samples were homogenized using a FastPrep™ System. After centrifugation aliquots of the supernatants were used to determine compound concentrations by a HPLC-MS/MS procedure.

Setting [4] is: Bordetella bronchiseptica, 20 isolates, broth microdilution.
The mark [5] stands for this setting: Pasteurella multocida, 25 isolates of bovine origin, broth microdilution.
Where [6] appears, read: of 25 isolates tested, bovine origin.
Setting [7] is: Pasteurella multocida, 22 isolates of porcine origin, broth microdilution.
Where [8] appears, read: of 22 isolates tested, porcine origin.

In the data set on B. bronchiseptica (setting [4]), `COCCNCc1ccc(C#Cc2ccc(C(=O)N[C@H](C(=O)NO)C(C)(C)N)cc2)cc1` [Compound A] returned an MIC50 of 8 µg/mL (≈ 18.2 µM) and an MIC90 of 16 µg/mL (≈ 36.5 µM). In addition, in the data set on B. bronchiseptica (of 20 isolates tested), the “Distribution of MICs: number of isolates with MIC 8 μg/mL” value came to 10 and the “Distribution of MICs: number of isolates with MIC 16 μg/mL” value was 10. In data set [1] (setting [5]), this compound had an MIC50 of 0.032 µg/mL (≈ 0.073 µM) and an MIC90 of 0.063 µg/mL (≈ 0.144 µM). In data set [1] (setting [6]), the “Distribution of MICs: number of isolates with MIC 0.032 μg/mL” value is on record as 12, the “Distribution of MICs: number of isolates with MIC 0.063 μg/mL” value stood at 6, the “Distribution of MICs: number of isolates with MIC 0.125 μg/mL” value stood at 1 and the “Distribution of MICs: number of isolates with MIC ≤0.016 μg/mL” value is 6. In data set [2] (setting [7]), this compound gave an MIC50 of 0.032 µg/mL (≈ 0.073 µM) and an MIC90 of 0.063 µg/mL (≈ 0.144 µM). In addition, in data set [2] (setting [8]), the “Distribution of MICs: number of isolates with MIC 0.032 μg/mL” value was 12, the “Distribution of MICs: number of isolates with MIC 0.063 μg/mL” value is on record as 6, the “Distribution of MICs: number of isolates with MIC 0.125 μg/mL” value stood at 1 and the “Distribution of MICs: number of isolates with MIC ≤0.016 μg/mL” value worked out at 3. In data set [3], the “Detection in tissue samples from lungs” value is recorded as “substantial amounts”.
